Assay results taken from PMC12366525, “Characterization of allosteric modulators that disrupt androgen receptor co-activator protein-protein interactions to alter transactivation–Drug leads for metastatic castration resistant prostate cancer” (SLAS discovery : advancing life sciences R & D, 2023).

Tests used:
AR-LBD = target: T1, AR-LBD (Homo sapiens, UniProt P10275); test: H^3-DHT radioligand competition binding assay; details: 10 nM H^3-DHT, recombinant His6-AR-LBD
T1 construct: The pET28a-AR-LBD (622–919) construct [78] was a gift; made in house
T1 sequence (P10275 622-919): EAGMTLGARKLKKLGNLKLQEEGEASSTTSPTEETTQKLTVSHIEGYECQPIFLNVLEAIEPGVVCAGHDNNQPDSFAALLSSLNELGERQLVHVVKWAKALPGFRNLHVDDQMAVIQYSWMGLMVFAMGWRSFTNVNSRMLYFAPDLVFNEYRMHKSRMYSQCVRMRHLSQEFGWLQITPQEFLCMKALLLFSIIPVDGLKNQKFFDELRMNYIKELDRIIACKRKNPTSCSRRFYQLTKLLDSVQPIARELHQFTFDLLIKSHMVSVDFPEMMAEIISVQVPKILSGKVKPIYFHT
Description: The His6-AR-LBD H^3-DHT competition binding assay has been described previously. Briefly, 96-well Cu^2+-coated plates (ThermoFisher) were incubated overnight at 4 °C with 5 μg per well His6-AR-LBD in 100 μL of PBS. Unbound His6-AR-LBD was aspirated, the plate was washed 3 × with 100 μL of 0.05% Tween 20 in PBS and then blocked with 100 μL of 1 mg/mL BSA in PBS for 1 h. After three more washes with 100 μL of PBS and 0.05% Tween 20, 40 μL of PBS was added to wells followed by 5 μL each of diluted compounds and 100 nM H^3-DHT transferred into the wells using a Matrix pipettor. Compounds were tested between 0.098 to 50 μM in the presence of 10 nM H^3-DHT. After 1 h, compounds and H^3-DHT were aspirated and washed 3 × with 0.05% Tween 20 in PBS; 100 μL of Microscint™−20 micro-scintillation cocktail buffer (Perkin Elmer, Waltham, MA) was added to each well, plates were sealed with adhesive plastic covers; and the counts per minute (CPMs) were captured in a TopCount NXT microtiter plate reader (Perkin Elmer, Waltham, MA).

AR = target: T2, AR (Homo sapiens, UniProt P10275, T878A); test: AlphaScreen cellular thermal shift assay (CETSA) for AR in C4–2 cells; assay type: cell-based; details: for Effect on AR thermal stability, AlphaScreen CETSA: 1 h at 37 °C prior to heat shock at 46 °C, hits and enzalutamide 20 μM, DHT 10 nM; for Effect on maximum efficacy of DHT-enhanced AR thermal stabilization / Right shift of the DHT EC50 for AR thermal stabilization: 20 or 50 μM compound pre-treatment
T2 construct: DHT-induced full length AR directed TA; endogenous in cells; host or cells: C4–2 castration resistant prostate cancer cells
T2 sequence (P10275 1-920 T878A): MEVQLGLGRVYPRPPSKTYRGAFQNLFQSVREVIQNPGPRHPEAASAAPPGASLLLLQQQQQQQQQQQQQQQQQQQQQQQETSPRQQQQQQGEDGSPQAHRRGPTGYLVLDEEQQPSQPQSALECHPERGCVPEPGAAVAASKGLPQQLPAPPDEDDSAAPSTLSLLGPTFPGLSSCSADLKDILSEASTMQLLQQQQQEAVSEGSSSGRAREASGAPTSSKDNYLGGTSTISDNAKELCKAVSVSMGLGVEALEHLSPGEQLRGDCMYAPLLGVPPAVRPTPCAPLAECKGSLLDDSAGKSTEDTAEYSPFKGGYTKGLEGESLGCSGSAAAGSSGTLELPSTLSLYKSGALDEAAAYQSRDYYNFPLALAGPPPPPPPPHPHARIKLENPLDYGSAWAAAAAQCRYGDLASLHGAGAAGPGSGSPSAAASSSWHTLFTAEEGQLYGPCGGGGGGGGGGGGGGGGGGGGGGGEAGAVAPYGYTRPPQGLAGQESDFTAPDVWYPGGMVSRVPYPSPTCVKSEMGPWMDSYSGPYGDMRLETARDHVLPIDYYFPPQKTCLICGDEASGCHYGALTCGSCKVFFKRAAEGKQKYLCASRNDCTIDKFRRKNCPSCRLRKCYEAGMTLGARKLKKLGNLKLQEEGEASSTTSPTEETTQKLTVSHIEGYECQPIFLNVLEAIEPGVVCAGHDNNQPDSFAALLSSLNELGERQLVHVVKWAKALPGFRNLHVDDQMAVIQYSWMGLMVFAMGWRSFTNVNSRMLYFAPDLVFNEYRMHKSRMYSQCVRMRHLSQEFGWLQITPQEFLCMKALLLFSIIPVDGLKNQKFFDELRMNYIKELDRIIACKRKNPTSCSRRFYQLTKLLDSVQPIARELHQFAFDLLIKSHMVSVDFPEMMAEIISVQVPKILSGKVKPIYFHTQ
Description: Mouse anti-hAR (BD Biosciences, San Jose, CA) and rabbit anti-hAR (MilliporeSigma, Burlington, MA) were diluted 1:330 and 1:1000 fold respectively in PBS containing 0.5 mg/mL BSA and 4 μL of the combined diluted AR antibody pair were added to 4 μL of the cell lysate supernatant in a 384-well plate and incubated in the dark for 30 min at room temperature. To each well of the 384-well plate 4 μL of a combined solution of anti-mouse IgG Alpha Donor and anti-rabbit IgG (Fc specific) AlphaLISA Acceptor beads suspended in 1x lysis buffer was added to yield a final donor and acceptor bead concentrations of 40 μg/mL and 10 μg/mL respectively.

PSA = test: Western blot of PSA expression in C4–2 cells; assay type: cell-based, human; details: for C4-2 cell lysates PSA Western Blot, relative to DMSO (100%): 10 nM DHT 24 h, 20 μM compound 3 h pre-exposure; for Effect on endogenous and DHT-enhanced PSA expression and secretion: C4–2 cells, 20 μM for 3 h prior to DMSO or 10 nM DHT, 24 h
Description: Cell lysate protein concentrations were determined in a bicinchoninic acid (BCA) assay. Equal amounts of cell protein were mixed with SDS-PAGE sample buffer and placed in a heat block at 100 °C for 5 min. The protein constituents of C4–2 cells were separated by SDS-PAGE on 10% separating gels, transferred to nitrocellulose membranes and western blots were probed overnight at 4 °C with a 1:1000 dilution of a rabbit anti-hPSA (Cell Signaling, Danvers, MA) primary antibody in Tris-buffered saline (TBS) Tween 20 (TBST) containing 5% non-fat milk. Membranes were washed 3x in TBST for 10 min, then incubated for 1 h at room temperature with a 1:10,000 dilution of the goat anti-rabbit IgG horse radish peroxidase (HRP) conjugated secondary antibody (Invitrogen, Carlsbad, CA) in TBST containing 5% non-fat milk. Western blots were then washed 3x in TBST and developed with Pierce enhanced chemiluminescence (ECL) western blotting substrate (Thermo Fisher Scientific, Waltham, MA). Images of western blot ECL bands were acquired on an iBright 1500 imaging system (Thermo Fisher Scientific, Waltham, MA) and quantified by iBright image analysis software.

SMILES | IC50 (AR-LBD) | Effect on AR thermal stability, AlphaScreen CETSA (AR) | C4-2 cell lysates PSA Western Blot, relative to DMSO (100%) (PSA) | Effect on endogenous and DHT-enhanced PSA expression and secretion (PSA) | Effect on maximum efficacy of DHT-enhanced AR thermal stabilization (AR) | Right shift of the DHT EC50 for AR thermal stabilization (AR)
Cc1ccccc1-c1cc(O)c2c(c1)CN(c1nc(C(N)=O)cs1)CCO2 [S1–1] | 43.7 µM | did not stabilize AR in the AlphaScreen assay but blocked DHT-enhanced AR thermal stabilization | 22.1% | substantially reduced both endogenous and DHT-enhanced PSA expression and secretion |  | 
Cc1ccccc1-c1cc(O)c2c(c1)CN(c1nccs1)CCO2 [S1–3] | > 100 µM |  |  |  |  | 
Cc1nsc(NC(=O)N2CCC(Sc3ccccc3C)CC2)n1 [S2–6] |  | did not stabilize AR in the AlphaScreen assay but blocked DHT-enhanced AR thermal stabilization | 0.9% | substantially reduced both endogenous and DHT-enhanced PSA expression and secretion | reduced the maximum efficacy of DHT-enhanced AR thermal stabilization | > 10 fold
Cc1c(-c2ccccc2F)[nH]c2ccc(CNC(=O)CCc3cn[nH]c3)cc12 [S3–11] |  | did not stabilize AR in the AlphaScreen assay but blocked DHT-enhanced AR thermal stabilization | 22.8% | substantially reduced both endogenous and DHT-enhanced PSA expression and secretion | at 50 μM reduced the maximum efficacy of DHT | ≥ 10 fold
Cc1c(-c2ccccc2F)[nH]c2ccc(CNC(=O)c3ccc(CO)o3)cc12 [S3–14] | 62.9 µM |  |  |  |  | 
